System: human A204 sarcoma cells
Test: Corona charge facilitated uptake of calcein by cells in culture (fluorescence microscopy)
Format: cell-based
Conditions: for % FLOURESCENT (percentage of fluorescing cells): 10 μM calcein in PBS, visually estimated
Description: Referring initially to FIG. 2, the present invention has been used experimentally to facilitate the uptake of calcein by cells in culture. The experimental apparatus is shown as in FIG. 2. 35 mm diameter cell culture plates 4 were seeded with 0.5×10^6 human A204 sarcoma cells 5 approximately 24 hours prior to the experiment to allow time for the cells to attach to the growth surface on the bottom of each dish. Immediately prior to treating the cells with corona charge in air, the growth media was aspirated. Then 500 ÂμI of 10 ÂμM Calcein 6, in phosphate buffered saline 7; was introduced onto the bottom of the plate. Calcein molecules in the phosphate buffered saline are shown in the figure as a negatively charged species. The liquid was distributed over the entire growth surface. […] Corona charge 10 was deposited onto the samples in the presence of calcein for a range of times from 0 minutes to 10 minutes. The solution of calcein was allowed to remain in contact with each sample for a period of 10 minutes after corona exposure. Additionally, a positive or negative bias potential 11 can be applied to the sample. Each plate was then washed with two separate 1 ml aliquots of phosphate buffered saline to remove extracellular calcein. Finally, a 1 ml aliquot of phosphate buffered saline was pipetted into each sample plate. Samples were viewed with florescent microscopy to visually confirm the entry of the nonpermanent calcein resulting from corona charge exposure. The percentage of fluorescing cells was visually estimated based upon the total number of cells in the plates. The table shown below indicates the resulting percentages of fluorescing cells in each sample.

O=C(O)CN(CC(=O)O)Cc1cc2c(cc1O)Oc1cc(O)c(CN(CC(=O)O)CC(=O)O)cc1C21OC(=O)c2ccccc21 [calcein, Calcein]
entry of calcein into the cells (absence of corona exposure (sample 6)): did not result in the entry of calcein into the cells
% FLOURESCENT (percentage of fluorescing cells) (corona exposure time 0 minutes (no corona exposure)): 0%
% FLOURESCENT (percentage of fluorescing cells) (corona exposure time 2 minutes, positive corona, wire at 6000 V, 2.5 cm away): Less than 1%
% FLOURESCENT (percentage of fluorescing cells) (corona exposure time 4 minutes, positive corona, wire at 6000 V, 2.5 cm away): 15%
% FLOURESCENT (percentage of fluorescing cells) (corona exposure time 6 minutes, positive corona, wire at 6000 V, 2.5 cm away): 20%
% FLOURESCENT (percentage of fluorescing cells) (corona exposure time 8 minutes, positive corona, wire at 6000 V, 2.5 cm away): 30%
% FLOURESCENT (percentage of fluorescing cells) (corona exposure time 10 minutes, positive corona, wire at 6000 V, 2.5 cm away): 80%

— patent US6929949B1, “Corona ion generating method and apparatus for the manipulation of molecules and biological cells” (University of South Florida, priority 2002, dated 2005)
